Measurements published in patent publication US11331369B2, “Endoparasitic depsipeptides” (Zoetis Services LLC, priority 2017, dated 2022).

Tests used:
[1] = tested on: microfilariae of Dirofilaria immitis; assay: Dirofilaria immitis, Microfilaria (DiMF) In vitro Assay; format: cell-based; conditions: 72 h, read-out: DiMF Minimum Effective Dose (MED), approximately 72 hours incubation, microfilariae assessed for survival or paralysis
[2] = tested on: 4th stage larvae (L4) of Dirofilaria immitis; assay: Dirofilaria immitis, L4 Stage (DiL4) In Vitro Assay; format: cell-based; conditions: Dirofilaria immitis, 72 h, read-out: DiL4 Minimum Effective Dose (MED), approximately 72 hours incubation; L4 larvae assessed for survival or paralysis

SMILES	minimal effective concentration [1]	minimal effective concentration [2]
CC(C)C[C@H]1C(=O)O[C@H](Cc2ccc(Cn3nc(C(F)F)cc3C3CC3)cc2)C(=O)N(C)[C@@H](CC(C)C)C(=O)O[C@H](C)C(=O)N(C)[C@@H](CC(C)C)C(=O)O[C@H](Cc2ccc(Cn3nc(C#N)cc3C#N)cc2)C(=O)N(C)[C@@H](CC(C)C)C(=O)O[C@H](C)C(=O)N1C [Example 1a-7, 1-(4-(((2R,5S,8R,11 S,14R,17S,20R,23S)-14-(4-((5-cyclopropyl-3-(difluoromethyl)-1H-pyrazol-1-yl)methyl)benzyl)-5,11,17,23-tetraisobutyl-4,8,10,16,20,22-hexamethyl-3,6,9,12,15,18,21,24-octaoxo-1,7,13,19-tetraoxa-4,10,16,22-tetraazacyclotetracosan-2-yl)methyl)benzyl)-1H-pyrazole-3,5-dicarbonitrile]	0.001 to 0.01 µM	≤ 0.0001 µM
CC(C)C[C@H]1C(=O)O[C@H](Cc2ccc(Cn3nccc3-c3ccccc3)cc2)C(=O)N(C)[C@@H](CC(C)C)C(=O)O[C@H](C)C(=O)N(C)[C@@H](CC(C)C)C(=O)O[C@H](Cc2ccc(Cn3nc(C#N)cc3C#N)cc2)C(=O)N(C)[C@@H](CC(C)C)C(=O)O[C@H](C)C(=O)N1C [Example 1a-12, 1-(4-(((2R,5S,8R,11S,14R,17S,20R,23S)-5,11,17,23-tetraisobutyl-4,8,10,16,20,22-hexamethyl-3,6,9,12,15,18,21,24-octaoxo-14-(4-((5-phenyl-1H-pyrazol-1-yl)methyl)benzyl)-1,7,13,19-tetraoxa-4,10,16,22-tetraazacyclotetracosan-2-yl)methyl)benzyl)-1H-pyrazole-3,5-dicarbonitrile]	0.01 to 0.1 µM	0.0001 to 0.001 µM
CCOc1cn(Cc2ccc(C[C@H]3OC(=O)[C@H](CC(C)C)N(C)C(=O)[C@@H](C)OC(=O)[C@H](CC(C)C)N(C)C(=O)[C@@H](Cc4ccc(Cn5ncc(OCC)c5C)cc4)OC(=O)[C@H](CC(C)C)N(C)C(=O)[C@@H](C)OC(=O)[C@H](CC(C)C)N(C)C3=O)cc2)nc1C [Example 1a-38, (3S,6R,9S,12R,15S,18R,21S,24R)-6-[[4-[(4-ethoxy-3-methyl-pyrazol-1-yl)methyl]phenyl]methyl]-18-[[4-[(4-ethoxy-5-methyl-pyrazol-1-yl)methyl]phenyl]methyl]-3,9,15,21-tetraisobutyl-4,10,12,16,22,24-hexamethyl-1,7,13,19-tetraoxa-4,10,16,22-tetrazacyclotetracosane-2,5,8,11,14,17,20,23-octaone]	0.001 to 0.01 µM	0.001 to 0.01 µM
Cc1nn(Cc2ccc(C[C@H]3OC(=O)[C@H](CC(C)C)N(C)C(=O)[C@@H](C)OC(=O)[C@H](CC(C)C)N(C)C(=O)[C@@H](Cc4ccc(Cn5ncc(OC(C)C)c5C)cc4)OC(=O)[C@H](CC(C)C)N(C)C(=O)[C@@H](C)OC(=O)[C@H](CC(C)C)N(C)C3=O)cc2)cc1OC(C)C [Example 1a-39, (3S,6R,9S,12R,15S,18R,21S,24R)-3,9,15,21-tetraisobutyl-6-[[4-[(4-isopropoxy-3-methyl-pyrazol-1-yl)methyl]phenyl]methyl]-18-[[4-[(4-isopropoxy-5-methyl-pyrazol-1-yl)methyl]phenyl]methyl]-4,10,12,16,22,24-hexamethyl-1,7,13,19-tetraoxa-4,10,16,22-tetrazacyclotetracosane-2,5,8,11,14,17,20,23-octaone]	0.01 to 0.1 µM	0.001 to 0.01 µM
CC(C)C#Cc1cnn(Cc2ccc(C[C@H]3OC(=O)[C@H](CC(C)C)N(C)C(=O)[C@@H](C)OC(=O)[C@H](CC(C)C)N(C)C(=O)[C@@H](Cc4ccc(Cn5cc(C#CC(C)C)cn5)cc4)OC(=O)[C@H](CC(C)C)N(C)C(=O)[C@@H](C)OC(=O)[C@H](CC(C)C)N(C)C3=O)cc2)c1 [Example 1b-112, (3S,6R,9S,12R,15S,18R,21S,24R)-3,9,15,21-tetraisobutyl-4,6,10,16,18,22-hexamethyl-12,24-bis(4-((4-(3-methylbut-1-yn-1-yl)-1H-pyrazol-1-yl)methyl)benzyl)-1,7,13,19-tetraoxa-4,10,16,22-tetraazacyclotetracosan-2,5,8,11,14,17,20,23-octaone]	0.01 to 0.1 µM	0.0001 to 0.001 µM
CC(C)C[C@H]1C(=O)O[C@H](Cc2ccc(Cn3cc(C#CC4CC4)cn3)cc2)C(=O)N(C)[C@@H](CC(C)C)C(=O)O[C@H](C)C(=O)N(C)[C@@H](CC(C)C)C(=O)O[C@H](Cc2ccc(Cn3cc(C#CC4CC4)cn3)cc2)C(=O)N(C)[C@@H](CC(C)C)C(=O)O[C@H](C)C(=O)N1C [Example 1b-113, (3S,6R,9S,12R,15S,18R,21S,24R)-6,18-bis(4-((4-(cyclopropylethynyl)-1H-pyrazol-1-yl)methyl)benzyl)-3,9,15,21-tetraisobutyl-4, 10,12,16,22,24-hexamethyl-1,7,13,19-tetraoxa-4,10,16,22-tetraazacyclotetracosan-2,5,8,11,14,17,20,23-octaone]	0.01 to 0.1 µM	0.0001 to 0.001 µM
CC(C)C[C@H]1C(=O)O[C@H](Cc2ccc(Cn3nccc3-c3ccccc3)cc2)C(=O)N(C)[C@@H](CC(C)C)C(=O)O[C@H](C)C(=O)N(C)[C@@H](CC(C)C)C(=O)O[C@H](Cc2ccc(Cn3nccc3-c3ccccc3)cc2)C(=O)N(C)[C@@H](CC(C)C)C(=O)O[C@H](C)C(=O)N1C [Example 1b-128, (3S,6R,9S,12R,15S,18R,21S,24R)-3,9,15,21-tetraisobutyl-4,6,10,16,18,22-hexamethyl-12,24-bis(4-((5-phenyl-1H-pyrazol-1-yl)methyl)benzyl)-1,7,13,19-tetraoxa-4,10,16,22-tetraazacyclotetracosan-2,5,8,11,14,17,20,23-octaone]	0.01 to 0.1 µM	0.001 to 0.01 µM
COc1ccc(-c2ccnn2Cc2ccc(C[C@H]3OC(=O)[C@H](CC(C)C)N(C)C(=O)[C@@H](C)OC(=O)[C@H](CC(C)C)N(C)C(=O)[C@@H](Cc4ccc(Cn5nccc5-c5ccc(OC)cc5)cc4)OC(=O)[C@H](CC(C)C)N(C)C(=O)[C@@H](C)OC(=O)[C@H](CC(C)C)N(C)C3=O)cc2)cc1 [Example 1b-149, (3S,6R,9S,12R,15S,18R,21S,24R)-3,9,15,21-tetraisobutyl-6,18-bis(4-((5-(4-methoxyphenyl)-1H-pyrazol-1-yl)methyl)benzyl)-4,10,12,16,22,24-hexamethyl-1,7,13,19-tetraoxa-4,10,16,22-tetraazacyclotetracosan-2,5,8,11,14,17,20,23-octaone]	0.01 to 0.1 µM	0.001 to 0.01 µM
CC(C)C[C@H]1C(=O)O[C@H](Cc2ccc(Cn3cc(OCC(F)(F)F)cn3)cc2)C(=O)N(C)[C@@H](CC(C)C)C(=O)O[C@H](C)C(=O)N(C)[C@@H](CC(C)C)C(=O)O[C@H](Cc2ccc(Cn3cc(OCC(F)(F)F)cn3)cc2)C(=O)N(C)[C@@H](CC(C)C)C(=O)O[C@H](C)C(=O)N1C [Example 1b-150, (3S,6R,9S,12R,15S,18R,21S,24R)-3,9,15,21-tetraisobutyl-4,6,10,16,18,22-hexamethyl-12,24-bis(4-((4-(2,2,2-trifluoroethoxy)-1H-pyrazol-1-yl)methyl)benzyl)-1,7,13,19-tetraoxa-4,10,16,22-tetraazacyclotetracosan-2,5,8,11,14,17,20,23-octaone]	0.001 to 0.01 µM	0.0001 to 0.001 µM
Cc1cnn(Cc2ccc(C[C@H]3OC(=O)[C@H](CC(C)C)N(C)C(=O)[C@@H](C)OC(=O)[C@H](CC(C)C)N(C)C(=O)[C@@H](Cc4ccc(Cn5ncc(C)c5C)cc4)OC(=O)[C@H](CC(C)C)N(C)C(=O)[C@@H](C)OC(=O)[C@H](CC(C)C)N(C)C3=O)cc2)c1C [Example 1b-152, (3S,6R,9S,12R,15S,18R,21S,24R)-6,18-bis(4-((4,5-dimethyl-1H-pyrazol-1-yl)methyl)benzyl)-3,9,15,21-tetraisobutyl-4,10,12,16,22,24-hexamethyl-1,7,13,19-tetraoxa-4,10,16,22-tetraazacyclotetracosan-2,5,8,11,14,17,20,23-octaone]	0.001 to 0.01 µM	0.001 to 0.01 µM
CC(C)C[C@H]1C(=O)O[C@H](Cc2ccc(Cn3nccc3C3CCCC3)cc2)C(=O)N(C)[C@@H](CC(C)C)C(=O)O[C@H](C)C(=O)N(C)[C@@H](CC(C)C)C(=O)O[C@H](Cc2ccc(Cn3nccc3C3CCCC3)cc2)C(=O)N(C)[C@@H](CC(C)C)C(=O)O[C@H](C)C(=O)N1C [Example 1b-154, (3S,6R,9S,12R,15S,18R,21S,24R)-6,18-bis(4-((5-cyclopentyl-1H-pyrazol-1-yl)methyl)benzyl)-3,9,15,21-tetraisobutyl-4,10,12,16,22,24-hexamethyl-1,7,13,19-tetraoxa-4,10,16,22-tetraazacyclotetracosan-2,5,8,11,14,17,20,23-octaone]	0.001 to 0.01 µM	≤ 0.0001 µM
COCc1cnn(Cc2ccc(C[C@H]3OC(=O)[C@H](CC(C)C)N(C)C(=O)[C@@H](C)OC(=O)[C@H](CC(C)C)N(C)C(=O)[C@@H](Cc4ccc(Cn5cc(COC)cn5)cc4)OC(=O)[C@H](CC(C)C)N(C)C(=O)[C@@H](C)OC(=O)[C@H](CC(C)C)N(C)C3=O)cc2)c1 [Example 1b-155, (3S,6R,9S,12R,15S,18R,21S,24R)-3,9,15,21-tetraisobutyl-6,18-bis(4-((4-(methoxymethyl)-1H-pyrazol-1-yl)methyl)benzyl)-4,10,12,16,22,24-hexamethyl-1,7,13,19-tetraoxa-4,10,16,22-tetraazacyclotetracosan-2,5,8,11,14,17,20,23-octaone]	0.001 to 0.01 µM	0.001 to 0.01 µM
CC(C)COc1cnn(Cc2ccc(C[C@H]3OC(=O)[C@H](CC(C)C)N(C)C(=O)[C@@H](C)OC(=O)[C@H](CC(C)C)N(C)C(=O)[C@@H](Cc4ccc(Cn5cc(OCC(C)C)cn5)cc4)OC(=O)[C@H](CC(C)C)N(C)C(=O)[C@@H](C)OC(=O)[C@H](CC(C)C)N(C)C3=O)cc2)c1 [Example 1b-172, (3S,6R,9S,12R,15S,18R,21S,24R)-6,18-bis(4-((4-isobutoxy-1H-pyrazol-1-yl)methyl)benzyl)-3,9,15,21-tetraisobutyl-4,10,12,16,22,24-hexamethyl-1,7,13,19-tetraoxa-4,10,16,22-tetraazacyclotetracosan-2,5,8,11,14,17,20,23-octaone]	0.01 to 0.1 µM	0.001 to 0.01 µM
